Among the data in US7776875B2, “Spiroindolinone derivatives” (Hoffman-La Roche Inc., priority 2007, dated 2010) are IC50 values, retold here.

The target of the assay is recombinant GST-tagged MDM2 / p53-peptide interaction (Homo sapiens, UniProt Q00987). The experiment in a line: HTRF assay of inhibition of the p53-MDM2 interaction. Type of assay: binding. To be noted: 0.02% BSA. As for the experimental part:
The ability of the compounds to inhibit the interaction between p53 and MDM2 proteins was measured by an HTRF (homogeneous time-resolved fluorescence) assay in which recombinant GST-tagged MDM2 binds to a peptide that resembles the MDM2-interacting region of p53 (Lane et al.). Binding of GST-MDM2 protein and p53-peptide (biotinylated on its N-terminal end) is registered by the FRET (fluorescence resonance energy transfer) between Europium (Eu)-labeled anti-GST antibody and streptavidin-conjugated Allophycocyanin (APC).
[…] Add 10 uL diluted compounds (1:5 dilution in reaction buffer) to each well, mix by shaking. Add 20 uL biotinylated p53 peptide (180 nM working solution) in reaction buffer to each well and mix on shaker. Incubate at 37° C. for h. Add 20 uL streptavidin-APC and Eu-anti-GST antibody mixture (6 nM Eu-anti-GST and 60 nM streptavidin-APC working solution) in TBS buffer with 0.2% BSA, shake at room temperature for 30 minutes and read using a TRF-capable plate reader at 665 and 615 nm (Victor 5, Perkin ElmerWallac). If not specified, the reagents were purchased from Sigma Chemical Co.
A general note: In TR-FRET formats the signal depends on donor and acceptor labels being close together.

Sequence of recombinant GST-tagged MDM2 / p53-peptide interaction (Q00987 whole entry): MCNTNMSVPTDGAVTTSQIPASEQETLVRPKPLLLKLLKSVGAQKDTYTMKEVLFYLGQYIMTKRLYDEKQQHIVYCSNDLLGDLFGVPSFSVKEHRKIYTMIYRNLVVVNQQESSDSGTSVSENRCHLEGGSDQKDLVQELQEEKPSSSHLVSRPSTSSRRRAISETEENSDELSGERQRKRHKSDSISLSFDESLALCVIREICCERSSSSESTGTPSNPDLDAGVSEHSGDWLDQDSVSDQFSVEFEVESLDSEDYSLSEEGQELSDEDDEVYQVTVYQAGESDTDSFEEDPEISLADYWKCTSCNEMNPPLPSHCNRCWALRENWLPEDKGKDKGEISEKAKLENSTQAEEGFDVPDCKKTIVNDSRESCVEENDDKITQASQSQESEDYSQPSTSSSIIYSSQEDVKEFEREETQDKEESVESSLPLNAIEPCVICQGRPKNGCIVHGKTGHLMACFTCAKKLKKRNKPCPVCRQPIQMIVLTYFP

As for `Cc1ccc(F)cc1[C@@H]1NC(=O)C[C@H](c2cc(Cl)ccc2OC(C)(C)C(=O)NC2CCN(C)CC2)[C@@]12C(=O)Nc1cc(Cl)ccc12` (racemic) [Example 1g, Racemic (2′S,3S,4′R)-6-chloro-4′-{5-chloro-2-[1-methyl-1-(1-methyl-piperidin-4-ylcarbamoyl)-ethoxy]-phenyl}-2′-(5-fluoro-2-methyl-phenyl)spiro[3H-indole-3,3′-piperidine]-2,6′(1H)-dione], the concentration for half-maximal inhibition (IC50) (as a rule, the concentration that inhibits the measured activity by half) came out at 0.278 µM.

Turning to `Cc1ccc(F)cc1[C@@H]1NC(=O)C[C@H](c2cc(Cl)ccc2OC2(C(=O)NS(=O)(=O)c3ccc(F)cc3)CCC2)[C@@]12C(=O)Nc1cc(Cl)ccc12` (racemic) [Example 11, Racemic (2′S,3S,4′R)-6-chloro-4′-{5-chloro-2-[1-(4-fluoro-benzenesulfonylaminocarbonyl)-cyclobutoxy]-phenyl}-2′-(5-fluoro-2-methyl-phenyl)-spiro[3H-indole-3,3′-piperidine]-2,6′(1H)-dione], the 50% inhibitory concentration (IC50) was determined as 0.065 µM.

For the compound `Cc1ccc(F)cc1[C@@H]1NC(=O)C[C@H](c2cc(Cl)ccc2OC(C)(C)C(=O)NCCN2CCCCC2)[C@@]12C(=O)Nc1cc(Cl)ccc12` (racemic) [Example 8, Racemic (2′S,3S,4′R)-6-chloro-4′-{5-chloro-2-[1-methyl-1-(2-piperidin-1-yl-ethylcarbamoyl)-ethoxy]-phenyl}-2′-(5-fluoro-2-methyl-phenyl)-spiro[3H-indole-3,3′-piperidine]-2,6′(1H)-dione], the IC50 amounted to 0.327 µM.

Turning to `CN(C)C(=O)C(C)(C)Oc1ccc(Cl)cc1[C@H]1CC(=O)N[C@@H](c2cc(Cl)ccc2F)[C@]12C(=O)Nc1cc(Cl)ccc12` (racemic) [Example 34d, (2′R,3S,4′R)-6-chloro-4′-[5-chloro-2-(1-dimethylcarbamoyl-1-methyl-ethoxy)-phenyl]-2′-(2-fluoro-5chloro-phenyl)spiro[3H-indole-3,3′-piperidine]-2,6′(1H)-dione], the IC50 was 0.155 µM.

Take `Cc1ccc(F)cc1[C@@H]1NC(=O)C[C@H](c2cc(Cl)ccc2OC(C)(C)C(=O)N2CCC(F)(F)CC2)[C@@]12C(=O)Nc1cc(Cl)ccc12` [Example 29b, (2′S,3S,4′R)-6-chloro-4′-{5-chloro-2-[2-(4,4-difluoro-piperidin-1-yl)-1,1-dimethyl-2-oxo-ethoxy]-phenyl}-2′-(5-fluoro-2-methyl-phenyl)spiro[3H-indole-3,3′-piperidine]-2,6′(1H)-dione]: the half-maximal inhibitory concentration (IC50) amounted to 0.054 µM.
